Tests used:
Assay type in all cases: in vivo
[1] = tested on: wheat (Triticum aestivum); test: Test A pre-/postemergence: wheat
Outline: (§1)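 Compounds, formulated with surfactant in non-phytotoxic solvent, were applied as a directed soil spray preemergence and as postemergence sprays to 2–10 cm, one- to two-leaf seedlings grown in loam soil blended with sand; visual injury, 0–100, assessed ~10 days post-treatment against untreated controls.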

[2] = tested on: sedge, umbrella (small-flower umbrella sedge, Cyperus difformis); test: Test C flooded paddy test: sedge, umbrella; conditions: scale 0 to 100 (0 no effect, 100 complete control)
Outline: (§2)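 Plants at 2-leaf stage in pots flooded 3 cm above soil; compounds applied directly into the paddy water, depth maintained. Visual rating against controls after 13–15 days in greenhouse, scale 0 (no effect) to 100 (complete control).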

[3] = tested on: foxtail, giant (giant foxtail, Setaria faberii); test: Test A pre-/postemergence: foxtail, giant
Outline: as §1

[4] = tested on: velvetleaf (Abutilon theophrasti); test: Test A pre-/postemergence: velvetleaf
Outline: as §1

[5] = tested on: corn (Zea mays); test: Test A pre-/postemergence: corn
Outline: as §1

[6] = tested on: rice (Oryza sativa); test: Test C flooded paddy test: rice; conditions: scale 0 to 100 (0 no effect, 100 complete control)
Outline: as §2

[7] = tested on: barnyardgrass (Echinochloa crus-galli); test: Test C flooded paddy test: barnyardgrass; conditions: scale 0 to 100 (0 no effect, 100 complete control)
Outline: as §2

[8] = tested on: barnyardgrass (Echinochloa crus-galli); test: Test A pre-/postemergence: barnyardgrass
Outline: as §1

[9] = tested on: pigweed (Amaranthus retroflexus); test: Test A pre-/postemergence: pigweed
Outline: as §1

[10] = tested on: ducksalad (Heteranthera limosa); test: Test C flooded paddy test: ducksalad; conditions: scale 0 to 100 (0 no effect, 100 complete control)
Outline: as §2

[11] = tested on: morningglory (Ipomoea spp.); test: Test A pre-/postemergence: morningglory
Outline: as §1

[12] = tested on: crabgrass, large (large crabgrass, Digitaria sanguinalis); test: Test A pre-/postemergence: crabgrass, large
Outline: as §1

[13] = Postemergence, 125 g ai/ha, 0 to 100 scale, 0 is no effect, 100 is complete control
[14] = Postemergence, 500 g ai/ha, visual rating on 0 to 100 scale (0 no effect, 100 complete control), approximately ten days
[15] = Preemergence, 125 g ai/ha, 0 to 100 scale (0 no effect, 100 complete control)
[16] = Preemergence, 500 g ai/ha, 0 to 100 scale, 0 is no effect, 100 is complete control
[17] = Flood (flooded paddy test), 125 g ai/ha, visual rating after 13 to 15 days
[18] = Flood (flooded paddy test), 250 g ai/ha, visual rating after 13 to 15 days
[19] = Postemergence, 1000 g ai/ha, visual rating on 0 to 100 scale (0 no effect, 100 complete control), approximately ten days
[20] = Preemergence, 1000 g ai/ha, 0 to 100 scale, 0 is no effect, 100 is complete control

COc1nn(-c2ccc(C(F)(F)F)cc2)nc1C(F)c1ccnc(C(F)(F)F)c1 (centres unmarked) [Compound 80]
Wheat plant response rating [1, 13]: 20 | Wheat plant response rating [1, 14]: 40 | Plant response rating, Wheat [1, 15]: 0 | Plant response rating, Wheat [1, 16]: 40 | Plant response rating, Sedge, Umbrella [2, 17]: 0 | Plant response rating, Sedge, Umbrella [2, 18]: 70 | Plant response rating, Sedge, Umbrella ([2]; Flood, 31 g ai/ha): 0 | Plant response rating, Sedge, Umbrella ([2]; Flood, 62 g ai/ha): 0 | Foxtail, Giant plant response rating [3, 13]: 30 | Foxtail, Giant plant response rating [3, 14]: 80 | Plant response rating, Foxtail, Giant [3, 15]: 90 | Plant response rating, Foxtail, Giant [3, 16]: 100 | Velvetleaf plant response rating [4, 13]: 80 | Velvetleaf plant response rating [4, 14]: 100 | Plant response rating, Velvetleaf [4, 15]: 30 | Plant response rating, Velvetleaf [4, 16]: 70 | Corn plant response rating [5, 13]: 20 | Corn plant response rating [5, 14]: 20 | Plant response rating, Corn [5, 15]: 0 | Plant response rating, Corn [5, 16]: 10 | Plant response rating, Rice [6, 17]: 0 | Plant response rating, Rice [6, 18]: 0 | Plant response rating, Rice ([6]; Flood, 31 g ai/ha): 0 | Plant response rating, Rice ([6]; Flood, 62 g ai/ha): 0 | Plant response rating, Barnyardgrass [7, 17]: 0 | Plant response rating, Barnyardgrass [7, 18]: 20 | Plant response rating, Barnyardgrass ([7]; Flood, 31 g ai/ha): 0 | Plant response rating, Barnyardgrass ([7]; Flood, 62 g ai/ha): 0 | Barnyardgrass plant response rating [8, 13]: 30 | Barnyardgrass plant response rating [8, 14]: 70 | Plant response rating, Barnyardgrass [8, 15]: 20 | Plant response rating, Barnyardgrass [8, 16]: 70 | Pigweed plant response rating [9, 13]: 100 | Pigweed plant response rating [9, 14]: 100 | Plant response rating, Pigweed [9, 15]: 100 | Plant response rating, Pigweed [9, 16]: 100 | Plant response rating, Ducksalad [10, 17]: 0 | Plant response rating, Ducksalad [10, 18]: 0 | Plant response rating, Ducksalad ([10]; Flood, 31 g ai/ha): 0 | Plant response rating, Ducksalad ([10]; Flood, 62 g ai/ha): 0 | Morningglory plant response rating [11, 13]: 40 | Morningglory plant response rating [11, 14]: 90 | Plant response rating, Morningglory [11, 15]: 0 | Plant response rating, Morningglory [11, 16]: 60 | Crabgrass, Large plant response rating [12, 13]: 40 | Crabgrass, Large plant response rating [12, 14]: 80 | Plant response rating, Crabgrass, Large [12, 15]: 90 | Plant response rating, Crabgrass, Large [12, 16]: 100

Cc1nn(-c2ccc(C(F)(F)F)cc2)nc1Oc1cccc(Cl)c1 [Compound 84]
Wheat plant response rating [1, 13]: 0 | Wheat plant response rating [1, 14]: 0 | Plant response rating, Wheat [1, 15]: 0 | Plant response rating, Wheat [1, 16]: 0 | Plant response rating, Sedge, Umbrella [2, 17]: 0 | Plant response rating, Sedge, Umbrella [2, 18]: 20 | Plant response rating, Sedge, Umbrella ([2]; Flood, 31 g ai/ha): 0 | Plant response rating, Sedge, Umbrella ([2]; Flood, 62 g ai/ha): 0 | Foxtail, Giant plant response rating [3, 13]: 10 | Foxtail, Giant plant response rating [3, 14]: 20 | Plant response rating, Foxtail, Giant [3, 15]: 0 | Plant response rating, Foxtail, Giant [3, 16]: 30 | Velvetleaf plant response rating [4, 13]: 10 | Velvetleaf plant response rating [4, 14]: 20 | Plant response rating, Velvetleaf [4, 15]: 0 | Plant response rating, Velvetleaf [4, 16]: 0 | Corn plant response rating [5, 13]: 10 | Corn plant response rating [5, 14]: 30 | Plant response rating, Corn [5, 15]: 0 | Plant response rating, Corn [5, 16]: 0 | Plant response rating, Rice [6, 17]: 20 | Plant response rating, Rice [6, 18]: 20 | Plant response rating, Rice ([6]; Flood, 31 g ai/ha): 0 | Plant response rating, Rice ([6]; Flood, 62 g ai/ha): 0 | Plant response rating, Barnyardgrass [7, 17]: 0 | Plant response rating, Barnyardgrass [7, 18]: 10 | Plant response rating, Barnyardgrass ([7]; Flood, 31 g ai/ha): 0 | Plant response rating, Barnyardgrass ([7]; Flood, 62 g ai/ha): 0 | Barnyardgrass plant response rating [8, 13]: 0 | Barnyardgrass plant response rating [8, 14]: 10 | Plant response rating, Barnyardgrass [8, 15]: 0 | Plant response rating, Barnyardgrass [8, 16]: 0 | Pigweed plant response rating [9, 13]: 40 | Pigweed plant response rating [9, 14]: 90 | Plant response rating, Pigweed [9, 15]: 0 | Plant response rating, Pigweed [9, 16]: 50 | Plant response rating, Ducksalad [10, 17]: 0 | Plant response rating, Ducksalad [10, 18]: 40 | Plant response rating, Ducksalad ([10]; Flood, 31 g ai/ha): 0 | Plant response rating, Ducksalad ([10]; Flood, 62 g ai/ha): 0 | Morningglory plant response rating [11, 13]: 30 | Morningglory plant response rating [11, 14]: 30 | Plant response rating, Morningglory [11, 15]: 0 | Plant response rating, Morningglory [11, 16]: 0 | Crabgrass, Large plant response rating [12, 13]: 10 | Crabgrass, Large plant response rating [12, 14]: 50 | Plant response rating, Crabgrass, Large [12, 15]: 0 | Plant response rating, Crabgrass, Large [12, 16]: 60

Cc1nn(-c2ccc(C(F)(F)F)cc2)nc1Sc1cccc(C(F)(F)F)c1 [Compound 88]
Wheat plant response rating [1, 13]: 0 | Wheat plant response rating [1, 14]: 10 | Plant response rating, Wheat [1, 15]: 0 | Plant response rating, Wheat [1, 16]: 0 | Plant response rating, Sedge, Umbrella [2, 17]: 0 | Plant response rating, Sedge, Umbrella [2, 18]: 0 | Plant response rating, Sedge, Umbrella ([2]; Flood, 31 g ai/ha): 0 | Plant response rating, Sedge, Umbrella ([2]; Flood, 62 g ai/ha): 0 | Foxtail, Giant plant response rating [3, 13]: 10 | Foxtail, Giant plant response rating [3, 14]: 40 | Plant response rating, Foxtail, Giant [3, 15]: 0 | Plant response rating, Foxtail, Giant [3, 16]: 40 | Velvetleaf plant response rating [4, 13]: 10 | Velvetleaf plant response rating [4, 14]: 80 | Plant response rating, Velvetleaf [4, 15]: 0 | Plant response rating, Velvetleaf [4, 16]: 0 | Corn plant response rating [5, 13]: 0 | Corn plant response rating [5, 14]: 10 | Plant response rating, Corn [5, 15]: 0 | Plant response rating, Corn [5, 16]: 0 | Plant response rating, Rice [6, 17]: 0 | Plant response rating, Rice [6, 18]: 0 | Plant response rating, Rice ([6]; Flood, 31 g ai/ha): 0 | Plant response rating, Rice ([6]; Flood, 62 g ai/ha): 0 | Plant response rating, Barnyardgrass [7, 17]: 0 | Plant response rating, Barnyardgrass [7, 18]: 0 | Plant response rating, Barnyardgrass ([7]; Flood, 31 g ai/ha): 0 | Plant response rating, Barnyardgrass ([7]; Flood, 62 g ai/ha): 0 | Barnyardgrass plant response rating [8, 13]: 10 | Barnyardgrass plant response rating [8, 14]: 20 | Plant response rating, Barnyardgrass [8, 15]: 0 | Plant response rating, Barnyardgrass [8, 16]: 10 | Pigweed plant response rating [9, 13]: 80 | Pigweed plant response rating [9, 14]: 100 | Plant response rating, Pigweed [9, 15]: 0 | Plant response rating, Pigweed [9, 16]: 50 | Plant response rating, Ducksalad [10, 17]: 0 | Plant response rating, Ducksalad [10, 18]: 0 | Plant response rating, Ducksalad ([10]; Flood, 31 g ai/ha): 0 | Plant response rating, Ducksalad ([10]; Flood, 62 g ai/ha): 0 | Morningglory plant response rating [11, 13]: 10 | Morningglory plant response rating [11, 14]: 50 | Plant response rating, Morningglory [11, 15]: 0 | Plant response rating, Morningglory [11, 16]: 0 | Crabgrass, Large plant response rating [12, 13]: 30 | Crabgrass, Large plant response rating [12, 14]: 80 | Plant response rating, Crabgrass, Large [12, 15]: 0 | Plant response rating, Crabgrass, Large [12, 16]: 50

Cc1nn(-c2ccc(F)cc2)nc1Cn1cnc(C(F)(F)F)n1 [Compound 94]
Wheat plant response rating [1, 19]: 30 | Wheat plant response rating [1, 20]: 0 | Plant response rating, Sedge, Umbrella [2, 17]: 60 | Plant response rating, Sedge, Umbrella [2, 18]: 75 | Plant response rating, Sedge, Umbrella ([2]; Flood, 31 g ai/ha): 0 | Plant response rating, Sedge, Umbrella ([2]; Flood, 62 g ai/ha): 50 | Foxtail, Giant plant response rating [3, 19]: 70 | Foxtail, Giant plant response rating [3, 20]: 100 | Velvetleaf plant response rating [4, 19]: 80 | Velvetleaf plant response rating [4, 20]: 20 | Corn plant response rating [5, 19]: 40 | Corn plant response rating [5, 20]: 0 | Plant response rating, Rice [6, 17]: 0 | Plant response rating, Rice [6, 18]: 0 | Plant response rating, Rice ([6]; Flood, 31 g ai/ha): 0 | Plant response rating, Rice ([6]; Flood, 62 g ai/ha): 0 | Plant response rating, Barnyardgrass [7, 17]: 0 | Plant response rating, Barnyardgrass [7, 18]: 0 | Plant response rating, Barnyardgrass ([7]; Flood, 31 g ai/ha): 0 | Plant response rating, Barnyardgrass ([7]; Flood, 62 g ai/ha): 0 | Barnyardgrass plant response rating [8, 19]: 40 | Barnyardgrass plant response rating [8, 20]: 70 | Pigweed plant response rating [9, 19]: 100 | Pigweed plant response rating [9, 20]: 100 | Plant response rating, Ducksalad [10, 17]: 40 | Plant response rating, Ducksalad [10, 18]: 60 | Plant response rating, Ducksalad ([10]; Flood, 31 g ai/ha): 0 | Plant response rating, Ducksalad ([10]; Flood, 62 g ai/ha): 0 | Morningglory plant response rating [11, 19]: 100 | Morningglory plant response rating [11, 20]: 60 | Crabgrass, Large plant response rating [12, 19]: 80 | Crabgrass, Large plant response rating [12, 20]: 100

Cc1nn(-c2ccc(F)cc2)nc1Cn1ccc(C(F)(F)F)n1 [Compound 95]
Wheat plant response rating [1, 19]: 0 | Wheat plant response rating [1, 20]: 0 | Plant response rating, Sedge, Umbrella [2, 18]: 0 | Plant response rating, Sedge, Umbrella ([2]; Flood, 62 g ai/ha): 0 | Foxtail, Giant plant response rating [3, 19]: 60 | Foxtail, Giant plant response rating [3, 20]: 100 | Velvetleaf plant response rating [4, 19]: 70 | Velvetleaf plant response rating [4, 20]: 40 | Corn plant response rating [5, 19]: 30 | Corn plant response rating [5, 20]: 10 | Plant response rating, Rice [6, 18]: 0 | Plant response rating, Rice ([6]; Flood, 62 g ai/ha): 0 | Plant response rating, Barnyardgrass [7, 18]: 0 | Plant response rating, Barnyardgrass ([7]; Flood, 62 g ai/ha): 0 | Barnyardgrass plant response rating [8, 19]: 60 | Barnyardgrass plant response rating [8, 20]: 50 | Pigweed plant response rating [9, 19]: 100 | Pigweed plant response rating [9, 20]: 90 | Plant response rating, Ducksalad [10, 18]: 0 | Plant response rating, Ducksalad ([10]; Flood, 62 g ai/ha): 0 | Morningglory plant response rating [11, 19]: 60 | Morningglory plant response rating [11, 20]: 0 | Crabgrass, Large plant response rating [12, 19]: 80 | Crabgrass, Large plant response rating [12, 20]: 100

From patent US9302999B2, “Substituted triazoles as herbicides” (E. I. DU PONT DE NEMOURS AND COMPANY, priority 2012, dated 2016)
